Reference: PubChem BioAssay AID1918996 (Molecular Pharmacology Branch, DTP, NCI, 2023)

Test system: 349418-098-R-PDC complex spheroid growth
Experiment: Anticancer human tumor 349418-098-R-PDC patient-derived lung adenocarcinoma cell line growth inhibition [AhR]
Details: for IC50: curve of first compound; for viability, T/C: stronger effect = lower value
How it was run: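 Complex tumor spheroids co-cultured with HUVEC and human MSC stroma; AhR antagonists tested in combination with standard-of-care and investigational agents. Top concentration at or near clinical Cmax (else 10 microM), half-log dilutions; growth expressed as percent test/control.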

[1] = second compound 0.1 µM, first compound 0.0316 µM
[2] = second compound 0.1 µM, first compound 0.1 µM
[3] = second compound 0.1 µM, first compound 0.316 µM
[4] = second compound 0.1 µM, first compound 1 µM
[5] = second compound 0.1 µM, first compound 3.16 µM
[6] = second compound 0.1 µM, first compound 10 µM
[7] = second compound 0.316 µM, first compound 0.0316 µM
[8] = second compound 0.316 µM, first compound 0.1 µM
[9] = second compound 0.316 µM, first compound 0.316 µM
[10] = second compound 0.316 µM, first compound 1 µM
[11] = second compound 0.316 µM, first compound 3.16 µM
[12] = second compound 0.316 µM, first compound 10 µM
[13] = second compound 1 µM, first compound 0.0316 µM
[14] = second compound 1 µM, first compound 0.1 µM
[15] = second compound 1 µM, first compound 0.316 µM
[16] = second compound 1 µM, first compound 1 µM
[17] = second compound 1 µM, first compound 3.16 µM
[18] = second compound 1 µM, first compound 10 µM
[19] = second compound 3.16 µM, first compound 0.0316 µM
[20] = second compound 3.16 µM, first compound 0.1 µM
[21] = second compound 3.16 µM, first compound 0.316 µM
[22] = second compound 3.16 µM, first compound 1 µM
[23] = second compound 3.16 µM, first compound 3.16 µM
[24] = second compound 3.16 µM, first compound 10 µM
[25] = second compound 10 µM, first compound 0.0316 µM
[26] = second compound 10 µM, first compound 0.1 µM
[27] = second compound 10 µM, first compound 0.316 µM
[28] = second compound 10 µM, first compound 1 µM
[29] = second compound 10 µM, first compound 3.16 µM
[30] = second compound 10 µM, first compound 10 µM
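Note: spheroids exposed to agents for seven days before luminescence viability read.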
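Throughout, for viability, T/C: spheroids also contain HUVEC endothelial cells and human MSC stroma.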

## CC1(C)CCC(CN2CCN(c3ccc(C(=O)NS(=O)(=O)c4ccc(NCC5CCOCC5)c([N+](=O)[O-])c4)c(Oc4cnc5[nH]ccc5c4)c3)CC2)=C(c2ccc(Cl)cc2)C1 + Cc1ccccc1N=Nc1ccc(NC(=O)c2ccnn2C)c(C)c1
Second compound 0.1 µM
  IC50: 5800 nM
Second compound 0.316 µM
  IC50: 6030 nM
Second compound 1 µM
  IC50: 6540 nM
Second compound 3.16 µM
  IC50: 3540 nM
Second compound 10 µM
  IC50: 3260 nM
[1]
  viability, T/C: 116%
[2]
  viability, T/C: 111%
[3]
  viability, T/C: 116%
[4]
  viability, T/C: 92.9%
[5]
  viability, T/C: 71.6%
[6]
  viability, T/C: 31.6%
[7]
  viability, T/C: 81.5%
[8]
  viability, T/C: 81.1%
[9]
  viability, T/C: 64.4%
[10]
  viability, T/C: 70%
[11]
  viability, T/C: 86.1%
[12]
  viability, T/C: 29.1%
[13]
  viability, T/C: 101%
[14]
  viability, T/C: 82.1%
[15]
  viability, T/C: 84.7%
[16]
  viability, T/C: 79.7%
[17]
  viability, T/C: 85.7%
[18]
  viability, T/C: 29.2%
[19]
  viability, T/C: 76.9%
[20]
  viability, T/C: 65.9%
[21]
  viability, T/C: 73.3%
[22]
  viability, T/C: 66.1%
[23]
  viability, T/C: 52%
[24]
  viability, T/C: 26%
[25]
  viability, T/C: 54.6%
[26]
  viability, T/C: 59.8%
[27]
  viability, T/C: 65.1%
[28]
  viability, T/C: 51.8%
[29]
  viability, T/C: 52%
[30]
  viability, T/C: 25.9%

## CCN(c1cc(-c2ccc(CN3CCOCC3)cc2)cc(C(=O)NCc2c(C)cc(C)[nH]c2=O)c1C)C1CCOCC1 + Cc1ccccc1N=Nc1ccc(NC(=O)c2ccnn2C)c(C)c1
Second compound 0.1 µM
  IC50: > 3000 nM
Second compound 0.316 µM
  IC50: > 3000 nM
Second compound 1 µM
  IC50: 1550 nM
Second compound 3.16 µM
  IC50: 1450 nM
Second compound 10 µM
  IC50: 154 nM
Second compound 0.1 µM, first compound 0.00949 µM
  viability, T/C: 68.2%
Second compound 0.1 µM, first compound 0.03 µM
  viability, T/C: 97.2%
Second compound 0.1 µM, first compound 0.0949 µM
  viability, T/C: 67.4%
Second compound 0.1 µM, first compound 0.3 µM
  viability, T/C: 56.3%
Second compound 0.1 µM, first compound 0.949 µM
  viability, T/C: 86.4%
Second compound 0.1 µM, first compound 3 µM
  viability, T/C: 53.1%
Second compound 0.316 µM, first compound 0.00949 µM
  viability, T/C: 101%
Second compound 0.316 µM, first compound 0.03 µM
  viability, T/C: 69.1%
Second compound 0.316 µM, first compound 0.0949 µM
  viability, T/C: 95.9%
Second compound 0.316 µM, first compound 0.3 µM
  viability, T/C: 72.4%
Second compound 0.316 µM, first compound 0.949 µM
  viability, T/C: 70.4%
Second compound 0.316 µM, first compound 3 µM
  viability, T/C: 64%
Second compound 1 µM, first compound 0.00949 µM
  viability, T/C: 87.8%
Second compound 1 µM, first compound 0.03 µM
  viability, T/C: 121%
Second compound 1 µM, first compound 0.0949 µM
  viability, T/C: 85.5%
Second compound 1 µM, first compound 0.3 µM
  viability, T/C: 78.3%
Second compound 1 µM, first compound 0.949 µM
  viability, T/C: 56.5%
Second compound 1 µM, first compound 3 µM
  viability, T/C: 42%
Second compound 3.16 µM, first compound 0.00949 µM
  viability, T/C: 76.8%
Second compound 3.16 µM, first compound 0.03 µM
  viability, T/C: 68.9%
Second compound 3.16 µM, first compound 0.0949 µM
  viability, T/C: 75.2%
Second compound 3.16 µM, first compound 0.3 µM
  viability, T/C: 59%
Second compound 3.16 µM, first compound 0.949 µM
  viability, T/C: 55.8%
Second compound 3.16 µM, first compound 3 µM
  viability, T/C: 42.3%
Second compound 10 µM, first compound 0.00949 µM
  viability, T/C: 59.4%
Second compound 10 µM, first compound 0.03 µM
  viability, T/C: 71.1%
Second compound 10 µM, first compound 0.0949 µM
  viability, T/C: 54.9%
Second compound 10 µM, first compound 0.3 µM
  viability, T/C: 38.4%
Second compound 10 µM, first compound 0.949 µM
  viability, T/C: 49.2%
Second compound 10 µM, first compound 3 µM
  viability, T/C: 42.1%

## COc1cc(Nc2ncc3c(n2)-c2ccc(Cl)cc2C(c2c(F)cccc2OC)=NC3)ccc1C(=O)O + Cc1ccccc1N=Nc1ccc(NC(=O)c2ccnn2C)c(C)c1
Second compound 0.1 µM
  IC50: 105 nM
Second compound 0.316 µM
  IC50: 157 nM
Second compound 1 µM
  IC50: 65.7 nM
Second compound 3.16 µM
  IC50: < 31.6 nM
Second compound 10 µM
  IC50: < 31.6 nM
[1]
  viability, T/C: 70.5%
[2]
  viability, T/C: 50.9%
[3]
  viability, T/C: 30.5%
[4]
  viability, T/C: 30.8%
[5]
  viability, T/C: 33.5%
[6]
  viability, T/C: 31.1%
[7]
  viability, T/C: 64.8%
[8]
  viability, T/C: 63%
[9]
  viability, T/C: 29.8%
[10]
  viability, T/C: 28.5%
[11]
  viability, T/C: 23.4%
[12]
  viability, T/C: 26%
[13]
  viability, T/C: 71.8%
[14]
  viability, T/C: 36.6%
[15]
  viability, T/C: 34.4%
[16]
  viability, T/C: 32.3%
[17]
  viability, T/C: 30.5%
[18]
  viability, T/C: 26.5%
[19]
  viability, T/C: 48.7%
[20]
  viability, T/C: 38.1%
[21]
  viability, T/C: 32.2%
[22]
  viability, T/C: 27.1%
[23]
  viability, T/C: 26.8%
[24]
  viability, T/C: 26.6%
[25]
  viability, T/C: 38.9%
[26]
  viability, T/C: 29.7%
[27]
  viability, T/C: 32.2%
[28]
  viability, T/C: 27.1%
[29]
  viability, T/C: 23.6%
[30]
  viability, T/C: 27.1%

## Cn1ncnc1C1c2n[nH]c(=O)c3cc(F)cc(c23)NC1c1ccc(F)cc1 (stereo not given) + Cc1ccccc1N=Nc1ccc(NC(=O)c2ccnn2C)c(C)c1
Second compound 0.1 µM
  IC50: > 100 nM
Second compound 0.316 µM
  IC50: > 100 nM
Second compound 1 µM
  IC50: > 100 nM
Second compound 3.16 µM
  IC50: > 100 nM
Second compound 10 µM
  IC50: > 100 nM
Second compound 0.1 µM, first compound 0.000316 µM
  viability, T/C: 106%
Second compound 0.1 µM, first compound 0.001 µM
  viability, T/C: 93.8%
Second compound 0.1 µM, first compound 0.00316 µM
  viability, T/C: 118%
Second compound 0.1 µM, first compound 0.01 µM
  viability, T/C: 56.1%
[1]
  viability, T/C: 99.1%
[2]
  viability, T/C: 67.4%
Second compound 0.316 µM, first compound 0.000316 µM
  viability, T/C: 110%
Second compound 0.316 µM, first compound 0.001 µM
  viability, T/C: 87.2%
Second compound 0.316 µM, first compound 0.00316 µM
  viability, T/C: 113%
Second compound 0.316 µM, first compound 0.01 µM
  viability, T/C: 74.1%
[7]
  viability, T/C: 115%
[8]
  viability, T/C: 71.6%
Second compound 1 µM, first compound 0.000316 µM
  viability, T/C: 82.9%
Second compound 1 µM, first compound 0.001 µM
  viability, T/C: 102%
Second compound 1 µM, first compound 0.00316 µM
  viability, T/C: 106%
Second compound 1 µM, first compound 0.01 µM
  viability, T/C: 89.9%
[13]
  viability, T/C: 94.2%
[14]
  viability, T/C: 80.6%
Second compound 3.16 µM, first compound 0.000316 µM
  viability, T/C: 72.1%
Second compound 3.16 µM, first compound 0.001 µM
  viability, T/C: 90.2%
Second compound 3.16 µM, first compound 0.00316 µM
  viability, T/C: 98.8%
Second compound 3.16 µM, first compound 0.01 µM
  viability, T/C: 79%
[19]
  viability, T/C: 71.4%
[20]
  viability, T/C: 63.6%
Second compound 10 µM, first compound 0.000316 µM
  viability, T/C: 61.5%
Second compound 10 µM, first compound 0.001 µM
  viability, T/C: 71.8%
Second compound 10 µM, first compound 0.00316 µM
  viability, T/C: 76.2%
Second compound 10 µM, first compound 0.01 µM
  viability, T/C: 51.2%
[25]
  viability, T/C: 70.8%
[26]
  viability, T/C: 55.6%

## NS(=O)(=O)OCC1CC(n2ccc3c(NC4CCc5ccccc54)ncnc32)CC1O (stereo not given) + Cc1ccccc1N=Nc1ccc(NC(=O)c2ccnn2C)c(C)c1
Second compound 0.1 µM
  IC50: 287 nM
Second compound 0.316 µM
  IC50: 196 nM
Second compound 1 µM
  IC50: 221 nM
Second compound 3.16 µM
  IC50: 131 nM
Second compound 10 µM
  IC50: 63.7 nM
[1]
  viability, T/C: 96.6%
[2]
  viability, T/C: 81.3%
[3]
  viability, T/C: 46.1%
[4]
  viability, T/C: 22.6%
[5]
  viability, T/C: 11.4%
[6]
  viability, T/C: 10.5%
[7]
  viability, T/C: 75%
[8]
  viability, T/C: 63.8%
[9]
  viability, T/C: 39.2%
[10]
  viability, T/C: 24.9%
[11]
  viability, T/C: 11.8%
[12]
  viability, T/C: 10.2%
[13]
  viability, T/C: 90.4%
[14]
  viability, T/C: 71.1%
[15]
  viability, T/C: 39%
[16]
  viability, T/C: 23.5%
[17]
  viability, T/C: 12%
[18]
  viability, T/C: 10.1%
[19]
  viability, T/C: 68.5%
[20]
  viability, T/C: 58.1%
[21]
  viability, T/C: 26.3%
[22]
  viability, T/C: 20.2%
[23]
  viability, T/C: 11.9%
[24]
  viability, T/C: 9.47%
[25]
  viability, T/C: 65.3%
[26]
  viability, T/C: 38.9%
[27]
  viability, T/C: 27.1%
[28]
  viability, T/C: 18%
[29]
  viability, T/C: 10.8%
[30]
  viability, T/C: 9.27%
